The text below walks through data of patent publication US20230348475A1, “IMIDAZOPYRIDAZINE AND IMIDAZOPYRAZINE COMPOUNDS AS INHIBITORS OF CDK7” (THE TRANSLATIONAL GENOMICS RESEARCH INSTITUTE, priority 2020, published 2023).

The structures appear in SMILES notation. Structures can show the parent of a compound that is named as a salt.

Chain of CDK7/CycH/MAT1 (P50613 whole entry): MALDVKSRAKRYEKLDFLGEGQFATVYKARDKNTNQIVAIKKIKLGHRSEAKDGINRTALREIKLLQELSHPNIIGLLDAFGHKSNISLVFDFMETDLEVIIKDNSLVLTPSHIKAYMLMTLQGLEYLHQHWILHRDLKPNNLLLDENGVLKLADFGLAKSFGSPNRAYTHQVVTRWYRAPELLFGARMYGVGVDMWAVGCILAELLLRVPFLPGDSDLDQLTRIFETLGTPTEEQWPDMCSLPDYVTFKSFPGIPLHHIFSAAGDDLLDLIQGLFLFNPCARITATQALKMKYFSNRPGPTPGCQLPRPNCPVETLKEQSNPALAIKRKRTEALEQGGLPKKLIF
Chain of CDK7/CycH/MAT1 (P51946 whole entry partner): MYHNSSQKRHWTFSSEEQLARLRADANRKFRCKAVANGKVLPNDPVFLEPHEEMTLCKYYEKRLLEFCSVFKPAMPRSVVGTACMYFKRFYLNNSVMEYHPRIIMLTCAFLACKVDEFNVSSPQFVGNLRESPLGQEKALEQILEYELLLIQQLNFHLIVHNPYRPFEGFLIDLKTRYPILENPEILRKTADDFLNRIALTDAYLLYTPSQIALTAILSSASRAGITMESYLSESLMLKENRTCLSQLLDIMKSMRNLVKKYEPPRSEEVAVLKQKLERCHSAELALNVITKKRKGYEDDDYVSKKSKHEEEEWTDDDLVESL
Chain of CDK7/CycH/MAT1 (P51948 whole entry partner): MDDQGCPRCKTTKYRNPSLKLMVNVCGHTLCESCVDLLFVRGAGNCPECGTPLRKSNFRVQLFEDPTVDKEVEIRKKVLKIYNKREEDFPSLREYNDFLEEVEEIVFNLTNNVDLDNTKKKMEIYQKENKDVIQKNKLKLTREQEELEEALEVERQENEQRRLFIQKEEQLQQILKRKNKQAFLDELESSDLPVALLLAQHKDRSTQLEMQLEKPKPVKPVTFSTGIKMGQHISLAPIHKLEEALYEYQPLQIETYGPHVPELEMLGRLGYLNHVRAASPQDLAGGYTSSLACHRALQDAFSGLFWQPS

The test has as its target CDK7/CycH/MAT1 (Homo sapiens, UniProt P50613). The experiment in a line: Kinase Glo (ADP-Glo) biochemical assay, CDK7. As to conditions: CDK7/CycH/MAT1 40 ng, ATP 1 μM, 60 minutes at RT, luminescence. As to the method: Materials: • Assay Buffer: 50 mM HEPES, 3 mM MgCl2, 3 mM MnCl2, 1 mM DTT, 3 μM Na3VO4, pH 7.5 • Substrate RB • CTF Peptide (ProQinase #: 0040-0000-6) • Enzymes • CDK7/CycH/MAT1 (ProQinase #: 0366-0360-4) • ADP-Glo™ Assay (Promega #: V9101) • ATP: 10 mM • ADP-Glo™ Reagent • Kinase Detection Reagent • 384-well white assay plates
A ten point serial dilution of compound was prepared at 5X concentration in assay buffer with the final assay concentrations starting at 30 μM, 10 μM, 3 μM, 1 μM . . . 0 μM. Enzyme, substrate, and ATP were used at 40 ng, 200 ng (or 400 ng)* and 1 μM, respectively. The assay plate was set up by mixing the components in a total reaction volume of 10 μL per well. The plate was centrifuged gently for 10 seconds and incubated at room temperature (RT) for 60 minutes in the dark. The ADP-Glo Reagent and kinase detection reagent were added and incubated as recommended. The reaction was quantified by measuring luminescence on the Perkin Elmer Envision plate reader.
Background: Kinase-Glo measures the ATP left after a reaction by luminescence.
In the case of `FC(F)(F)c1cnc2c(NCc3ccccc3)cc(SC3CCNCC3)nn12` [Compound 78, N-benzyl-6-(piperidin-4-ylthio)-3-(trifluoromethyl)imidazo[1,2-b]pyridazin-8-amine hydrochloride], the IC50 is less than 100 nM.

`CN1CCC[C@H](Oc2cc(Nc3cccc(F)c3)c3ncc(C4CC4)n3n2)C1` [Compound 7, (S)-3-cyclopropyl-N-(3-fluorophenyl)-6-((1-methylpiperidin-3-yl)oxy)imidazo[1,2-b]pyridazin-8-amine] had an IC50 of more than 1000 nM.

Turning to `CC(C)c1cnc2c(NCc3ccccc3OC(F)(F)F)cc(OC3CCNCC3(F)F)nn12` (stereo not drawn) [Compound 71, 6-((3,3-difluoropiperidin-4-yl)oxy)-3-isopropyl-N-(2-(trifluoromethoxy)benzyl)imidazo[1,2-b]pyridazin-8-amine hydrochloride], the IC50 is more than 1000 nM.

In turn, `CC(C)c1cnc2c(NCc3ccccc3)cc(NC[C@H]3CCCNC3)nn12` [Compound I-4] showed an IC50 of 100 to 1000 nM.

For the compound `CC(C)c1cnc2c(Nc3c(F)cccc3F)cc(SC3CCCNC3)nn12` (stereo not drawn) [Compound 59, N-(2,6-difluorophenyl)-3-isopropyl-6-(piperidin-3-ylthio)imidazo[1,2-b]pyridazin-8-amine hydrochloride], the IC50 was less than 100 nM.

Take `CCOc1ccccc1CNc1cc(SC2CCNCC2)nn2c(C(C)C)cnc12` [Compound 65, N-(2-ethoxybenzyl)-3-isopropyl-6-(piperidin-4-ylthio)imidazo[1,2-b]pyridazin-8-amine hydrochloride]: the half-maximal inhibitory concentration (IC50) was less than 100 nM.

Compound `CN1CCC[C@@H](Oc2cc(NCc3ccccc3)c3ncc(C4CC4)n3n2)C1` [Compound 9, (R)—N-benzyl-3-cyclopropyl-6-((1-methylpiperidin-3-yl)oxy)imidazo[1,2-b]pyridazin-8-amine] came in with an IC50 of 100 to 1000 nM.

As to `CN1CC[C@@H](Oc2cc(NCc3ccccc3)c3ncc(C4CC4)n3n2)C1` [Compound 10, (R)—N-benzyl-3-cyclopropyl-6-((1-methylpyrrolidin-3-yl)oxy)imidazo[1,2-b]pyridazin-8-amine], the IC50 is 100 to 1000 nM.

With `CC(C)c1cnc2c(N[C@@H](C)c3ccccc3)cc(OC3CCNCC3)nn12` [Compound 27, hydrochloride], the half-inhibitory concentration (IC50) fell in the range of 100 to 1000 nM.

`CC(C)c1cnc2c(Nc3cccc(C(F)(F)F)c3)cc(SC3CCCNC3)nn12` (stereo not drawn) [Compound 57, 3-isopropyl-6-(piperidin-3-ylthio)-N-(3-(trifluoromethyl)phenyl)imidazo[1,2-b]pyridazin-8-amine hydrochloride] came in with an IC50 of 100 to 1000 nM.

For `CN1CCC[C@H](Oc2cc(NCc3ccccc3)c3ncc(C4CC4)n3n2)C1` [Compound 11, (S)—N-benzyl-3-cyclopropyl-6-((1-methylpiperidin-3-yl)oxy)imidazo[1,2-b]pyridazin-8-amine], the IC50 fell in the range of 100 to 1000 nM.

`O=C(N1CCC(Sc2cc(NCc3ccccc3)c3ncc(C4CC4)n3n2)CC1)C(F)(F)F` [Compound 20, 1-(4-((8-(benzylamino)-3-cyclopropylimidazo[1,2-b]pyridazin-6-yl)thio)piperidin-1-yl)-2,2,2-trifluoroethan-1-one] displayed an IC50 of more than 1000 nM.

The compound `CC(C)c1cnc2c(NCc3c(F)cccc3F)cc(SC3CCNCC3)nn12` [Compound 52, N-(2,6-difluorobenzyl)-3-isopropyl-6-(piperidin-4-ylthio)imidazo[1,2-b]pyridazin-8-amine hydrochloride] came in with an IC50 of less than 100 nM.

Regarding `CC(C)c1cnc2c(NCc3ccccc3OC(F)(F)F)cc(OC[C@@H]3CNCCO3)nn12` [Compound 49, (S)-3-isopropyl-6-(morpholin-2-ylmethoxy)-N-(2-(trifluoromethoxy)benzyl)imidazo[1,2-b]pyridazin-8-amine hydrochloride], the IC50 fell in the range of 100 to 1000 nM.

Compound `c1ccc(CNc2cc(O[C@H]3CCNC3)nn3c(C4CC4)cnc23)cc1` [Compound 12, (S)—N-benzyl-3-cyclopropyl-6-(pyrrolidin-3-yloxy)imidazo[1,2-b]pyridazin-8-amine] returned an IC50 of 100 to 1000 nM.

By IC50 is commonly meant the concentration needed to halve the response being measured. Read a high IC50 as weaker potency in that assay.
